This is an account of results in patent US12478001B2, “Plant activator containing amino acid or salt thereof, and oligosaccharide, and use thereof” (priority 2019, dated 2025).

What all share (format): in vivo
Assay [1] deals with komatsuna. Description: Evaluation of komatsuna elicitor activity (glucanase activity measurement). The settings on record: komatsuna grown 6 days on MS agar medium containing plant vitalizer; glucanase activity (Abs590) of leaf extract; control = Comparative Example 3 without vitalizer. As for the experimental part: (i) The plant is sampled and pretreated; (ii) a calibration curve is drawn using BSA as the protein standard (using absorbance at a wavelength (600 nm) in a dye binding method); (iii) the protein concentration of the specimen prepared in (i) is measured; (iv) the glucanase activity of the specimen prepared in (i) is measured.
Each oligosaccharide prepared in [1. Preparation of oligosaccharide] and each amino acid prepared in [2. […] Each stock solution was diluted 1000-fold with water and used for the following cultivation test.
Murashige and Skoog (MS) agar medium was used for raising of the komatsuna.
High-pressure steam sterilized MS medium was transferred into a plant box on a clean bench and thoroughly cooled, and then komatsuna (“Wakami”, Sakata Seed Corp.) were seeded in a count of 10 each. They were then grown for 6 days with long-day conditions of 24 hours in a lighted room at 22° C.
After adding 300 μl of the prepared protein extraction buffer into a 1.5 ml tube equipped with a Biomasher (Nippi, Inc.), leaves (plant body) sampled and cut with scissors to approximately 4×4 mm were added. The procedure was carried out 5 times for each sample. A stirring rod was then rotated by hand to break up the plant body until the solid portion was generally no longer visible. Centrifugal separation was carried out under conditions of 15,000×g, 10 minutes, 4° C., and the aqueous layer was collected into a fresh 1.5 ml tube to prepare a liquid extract.
A 2 mg/ml portion of bovine serum albumin (BSA) of known purity was serially diluted (1/2, 1/4, 1/8, 1/16, 1/32 and 1/64 dilution) to prepare standards. The prepared standards were used to determine the average absorbance at 600 nm (Abs600), and a calibration curve was drawn (n=3). After injecting 300 μl of Coomassie Brilliant Blue (CBB) solution into a 96-well plate, 6 μl of the prepared liquid extract was added. The Abs600 was then measured. The blank used was MilliQ. The absorbance of the liquid extract was fitted onto the calibration curve drawn with the 2 mg/ml of serially diluted BSA, to determine the protein concentration.
Dilution was carried out to a constant liquid extract concentration using the determined values, and the diluted extract was used for the following glucanase activity measurement.
In a 1.5 ml tube there were mixed 100 μl of a B-HS substrate solution prepared by suspending one tablet of B-HS reagent (Megazyme Co.) in 10 ml of MilliQ, 50 μl of 0.2 M phosphate buffer solution (pH 6.0) and 50 μl of the previously prepared diluted solution or ultrapure water (blank), to prepare samples for each of the Comparative Examples and Examples. Enzyme reaction was conducted for 1 hour and 30 minutes in a water bath at 30° C., shaking the sample well every 15 minutes. A 100 μl portion of 0.2 N NaOH as reaction stop solution (total: 300 μl) was added to stop the reaction.

Another assay relates to frill lettuce. Kind of assay: Frill lettuce hydroponic cultivation test, root dry weight. The settings on record: hydroponics, 60 days cultivation, percentage with non-added group root dry weight as 100%, vitalizer 50-100 ppm by mass. How it is done: Each oligosaccharide prepared in [1. Preparation of oligosaccharide] and each amino acid prepared in [2. Preparation of amino acids] were dissolved in water while stirring with a stirrer in a compositional ratio to 1000 times the plant vitalizer concentration (ppm by mass) in Comparative Examples 1 and 2 and Examples 1 and 6 to 7 listed in the tables, after which the bacteria were removed with a 0.45 μm filter, to obtain plant vitalizer stock solutions.
In the test groups, 150 g of each of the plant vitalizer stock solutions under different conditions was added to and dispersed in 150 L of culture solution prepared for hydroponics (1000-fold dilution), and cultivation was started for each of 120 varieties at a temperature of 20 to 22° C. Cultivation was carried out for a total of 60 days, with a total of 5 times every week after beginning further addition of 150 g of plant vitalizer stock solution, and the root dry weights of the frill lettuce were measured.
The root dry weights were determined by cutting the root parts, drying the cut roots with a constant temperature dryer for 12 hours at 50° C., and then measuring the weights.
The root dry weights in Table 1 are percentages (%) with respect to 100% as the root dry weight in the non-added group without plant vitalizer addition.

For assay [2], the system named is komatsuna. Description: Measurement of komatsuna fresh weight after foliar application. The settings on record: komatsuna raised 34 days in soil, vitalizer applied to leaves at one-week intervals; control = Comparative Example 11 without vitalizer. As for the experimental part:
Each oligosaccharide prepared in [1. […] Each stock solution was diluted 1000-fold with water and used for the following cultivation test. A sample was prepared with […] Corp.) as the plant crop, organic vegetable soil (Hirota Shoten) as the soil and Shin-Taki Organic Liquid Fertilizer #3 (Taki Chemical Co., Ltd.) as the fertilizer. After sprouting the plants on filter paper, they were planted into a 25-hole connected pot (280×280 mm overall, with holes of 50×50×50 mm) containing culturing soil and fertilizer.

For the compound `N[C@@H](CCC(=O)[O-])C(=O)[O-].[Na+].[Na+]` [compound 7, Sodium glutamate], in the assay with komatsuna [1], the “Elicitor activity (compared to control as 100)” value amounted to 82.
Same read-out and setting: to `N=C(N)NCCC[C@H](N)C(=O)O` [compound 10, Arginine] belongs 79.
For the compound `NCC(=O)O` [Comparative Example 2, Glycine], the “Increase in root dry weight with respect to non-added group (measured n = 5)” value with frill lettuce is reported as 112%.
As to `NCC(=O)O` [compound 5, Glycine], the “Elicitor activity (compared to control as 100)” value with komatsuna [1] is listed as 141.
Same read-out and setting: to `N[C@@H](Cc1c[nH]cn1)C(=O)O` [compound 8, Histidine] belongs 89.
Regarding `N[C@@H](CCC(=O)[O-])C(=O)[O-].[Na+].[Na+]` [compound 14, Sodium glutamate], the “Fresh weight (compared to control as 100)” value in the assay with komatsuna [2] is 89%.
For the compound `NCCCC[C@H](N)C(=O)O` [Comparative Example 6, Lysine], the “Elicitor activity (compared to control as 100)” value in the assay with komatsuna [1] was 104.
As to `NCC(=O)O` [compound 13, Glycine], the “Fresh weight (compared to control as 100)” value with komatsuna [2] worked out at 102%.
For `C[C@H](N)C(=O)O` [compound 9, Alanine], the “Elicitor activity (compared to control as 100)” value in the assay with komatsuna [1] stood at 72.
For the compound `N[C@@H](Cc1c[nH]cn1)C(=O)O` [compound 12, Histidine], the “Fresh weight (compared to control as 100)” value in the assay with komatsuna [2] is given as 92%.
